Our source for the IC50 and AC50 values is ChEMBL document CHEMBL1201862, “PubChem BioAssay data set” (2004).

The structures appear in SMILES notation. The source made the active and inactive calls.

One data set addresses T1, Rac GTPase-activating protein 1 (Homo sapiens, UniProt Q9H0H5).
T1 sequence (Q9H0H5 whole entry): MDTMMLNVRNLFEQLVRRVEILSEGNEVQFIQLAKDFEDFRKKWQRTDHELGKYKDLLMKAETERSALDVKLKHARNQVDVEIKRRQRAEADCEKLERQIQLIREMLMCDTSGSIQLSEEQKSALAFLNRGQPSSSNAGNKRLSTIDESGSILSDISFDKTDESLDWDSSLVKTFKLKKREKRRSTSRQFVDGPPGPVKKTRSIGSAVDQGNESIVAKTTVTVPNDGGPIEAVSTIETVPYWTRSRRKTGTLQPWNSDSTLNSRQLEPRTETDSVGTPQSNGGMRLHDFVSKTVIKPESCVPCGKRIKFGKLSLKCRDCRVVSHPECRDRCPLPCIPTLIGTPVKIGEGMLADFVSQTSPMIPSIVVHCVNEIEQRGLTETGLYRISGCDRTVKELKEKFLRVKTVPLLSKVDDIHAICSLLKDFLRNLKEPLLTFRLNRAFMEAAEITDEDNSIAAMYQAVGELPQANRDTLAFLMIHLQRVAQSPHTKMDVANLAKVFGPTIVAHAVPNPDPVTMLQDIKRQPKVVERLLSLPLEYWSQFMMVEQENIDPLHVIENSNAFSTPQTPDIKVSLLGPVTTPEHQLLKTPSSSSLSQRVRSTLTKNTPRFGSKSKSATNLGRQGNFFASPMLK
Briefly: blockers of MgcRacGAP-driven Rac1 GTP hydrolysis – biochemical, ADP Hunter fluorescence, primary and confirmatory, confirmation (AID 624330). Format: functional.
Conditions: not given
Regarding `Cc1cccc(OCC(=O)N2CCN(Cc3ccncc3)CC2)c1`, the IC50 is 82.9 µM (active). On the same count and under the same terms, then `CCCCN(C)C(=O)C1CCN(Cc2cccc(OCc3ccccc3)c2)CC1`, with 172 µM (active). On to `O=c1c2c([N+](=O)[O-])cc([N+](=O)[O-])cc2[s+]([O-])n1Cc1ccccc1` (configuration not stated), for which the half-inhibitory concentration (IC50) is 46.6 µM (active). Same read-out and setting: then `Cc1ccc(CNc2ncc(-c3ccccc3)n2C)o1`, with 83.2 µM (active); and `O=C(Cc1ccccc1)N1CCN(Cc2ccc(F)cc2)CC1`, with 130 µM (active). `Oc1ccc(Nc2ncnc3ccccc23)cc1`: the IC50 is 15.5 µM (active). Still for that read-out and setting: then `COc1cc(CN2CCC(C(=O)N3CCN(c4ccccc4F)CC3)CC2)ccc1O`, with 110 µM (active). The same measure, in the same setting: the value for `Nc1nc2c(s1)CCc1ccccc1-2` was 41.4 µM (active); that for `Nc1ccc(N2CCCCC2)c(Cl)c1` was 46.4 µM (active). As to `CCCCNc1[nH]c(=S)nc2cc(OC)c(OC)cc12`, the IC50 was 61.8 µM (active).

In the case of `COc1ccc([C@H]2CN(c3ccc(OC)cc3)C(=O)[C@@H]2CC(=O)Nc2ccccc2)cc1`, the IC50 was 115 µM (active).

In the case of `N#Cc1c(O)nsc1Nc1ccccc1`, the half-inhibitory concentration (IC50) was 79.5 µM (active). Same read-out and setting: the value for `Oc1ccc(/C=N/Nc2cc(N3CCOCC3)nc(N3CCOCC3)n2)cc1` was 45.3 µM (active). The same measure, in the same setting: the value for `C/C(=N\c1ccc(O)cc1)c1sc2ccccc2c1O` was 123 µM (active). As to `CCOc1cc(/C=N/NC(=O)c2ccc(=O)n(C)c2)ccc1O`, the concentration for half-maximal inhibition (IC50) was 59.6 µM (active).

Another data set has as its target T2, Cytochrome P450 1A2 (Homo sapiens, UniProt P05177).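 Also: PubChem cytochrome P450 panel assay, CYP1A2 panel member.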
T2 sequence (P05177 whole entry): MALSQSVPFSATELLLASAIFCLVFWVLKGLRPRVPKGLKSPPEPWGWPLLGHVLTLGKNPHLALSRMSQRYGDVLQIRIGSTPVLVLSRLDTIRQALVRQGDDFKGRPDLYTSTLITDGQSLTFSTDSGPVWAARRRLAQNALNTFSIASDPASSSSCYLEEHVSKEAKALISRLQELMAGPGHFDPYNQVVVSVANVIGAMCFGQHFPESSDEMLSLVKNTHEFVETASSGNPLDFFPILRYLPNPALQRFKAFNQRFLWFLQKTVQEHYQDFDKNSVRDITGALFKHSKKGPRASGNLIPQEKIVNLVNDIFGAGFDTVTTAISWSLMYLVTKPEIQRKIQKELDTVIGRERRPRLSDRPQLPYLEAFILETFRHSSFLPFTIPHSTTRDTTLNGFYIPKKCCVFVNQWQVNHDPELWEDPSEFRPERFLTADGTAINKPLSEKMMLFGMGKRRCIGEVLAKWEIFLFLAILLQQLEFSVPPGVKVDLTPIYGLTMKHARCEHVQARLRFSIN
Conditions: not given
As for `Cc1nn(Cc2c(F)c(F)c(F)c(F)c2F)c(C)c1NC(=O)c1cccc(COc2ccc(Cl)cc2)c1`, the AC50 is 12.6 µM (inconclusive). On the same count and under the same terms, then `CC(C)=NNc1ncnc2[nH]cnc12`, with 0.794 µM (inconclusive); and `COc1nc(OCCNC(C)=O)nc(N(C)C)n1`, with 39.8 µM (inconclusive); and `COc1ccc(CC(=O)NCc2ccccn2)cc1OC`, with 14.1 µM (inconclusive). Same read-out and setting: the value for `O=c1c(CCc2ccccc2)nc2cncnc2n1Cc1ccccc1Cl` was 12.6 µM (inconclusive).

On to `O=C(NCc1ccccc1Cl)c1cnccn1`, for which the AC50 was 28.2 µM (inconclusive). The same measure, in the same setting: the value for `O=C1Nc2ccc(S(=O)(=O)O)cc2/C1=N/Nc1ccccc1[N+](=O)[O-]` was 1 µM (inconclusive). For `NNC(N)=O` [HYDRAZINECARBOXAMIDE], the AC50 is 39.8 µM (inconclusive).

In the next data set the target is Cytochrome P450 2C19 (Homo sapiens, UniProt P33261). Briefly: Cytochrome panel assay with activity outcomes. Panel member name: p450-cyp2c19 Compounds with AC50 equal or less than 10 uM are considered active. The class given is functional.
Cytochrome P450 2C19, sequence (P33261 whole entry): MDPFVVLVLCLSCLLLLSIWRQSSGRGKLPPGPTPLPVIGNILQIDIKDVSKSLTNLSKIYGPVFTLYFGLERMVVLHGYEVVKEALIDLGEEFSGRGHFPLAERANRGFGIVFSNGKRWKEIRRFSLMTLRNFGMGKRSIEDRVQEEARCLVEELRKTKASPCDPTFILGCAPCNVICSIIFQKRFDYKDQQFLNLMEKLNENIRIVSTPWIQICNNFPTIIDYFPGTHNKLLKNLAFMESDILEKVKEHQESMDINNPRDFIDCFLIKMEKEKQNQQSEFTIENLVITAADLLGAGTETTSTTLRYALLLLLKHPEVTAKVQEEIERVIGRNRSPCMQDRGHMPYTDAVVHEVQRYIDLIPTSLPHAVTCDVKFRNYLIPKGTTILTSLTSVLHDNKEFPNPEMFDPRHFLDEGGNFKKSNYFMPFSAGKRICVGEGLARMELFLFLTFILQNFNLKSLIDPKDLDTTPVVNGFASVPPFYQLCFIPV
Conditions: not given
Turning to `C[C@@]12C=CC(=O)C=C1CC[C@@H]1[C@@H]2[C@H](O)C[C@]2(C)[C@@H]1CC[C@]2(O)C(=O)CO`, the half-maximal activity concentration (AC50) result is recorded as “inconclusive”. Still for that read-out and setting: the value for `N#C[C@@H](/N=N\c1ccccc1C(=O)O)C(N)=O` was “inconclusive”; that for `O=C(O)[C@H](Cc1c[nH]c2ccccc12)N1C(=O)c2ccccc2C1=O` was “inconclusive”.

The same data set, now with this note: read-out: AC50.
With `COC(=O)[C@@]1(Cc2ccc(OC)cc2)[C@H]2c3cc(C(=O)N4CCCC4)n(Cc4ccccn4)c3C[C@H]2CN1C(=O)c1ccccc1`, the AC50 is 39.8 µM (inconclusive). Take `Cc1ccccc1OCCCN1CCCC1`: the half-maximal activity concentration (AC50) was 10 µM (inconclusive). As for `Cc1ccc(NC(=O)CCC(=O)NNC(=O)c2cccs2)c(C)c1`, the half-maximal activity concentration (AC50) was 28.2 µM (inconclusive). The same measure, in the same setting: then `O=C(O)CCC(=O)CCC(=O)c1ccccc1`, with 39.8 µM (inconclusive). The same measure, in the same setting: the value for `CCOC(=O)N1CCN(C(=O)c2ccc(NC(C)=O)cc2)CC1` was 22.4 µM (inconclusive); that for `O=C(NCc1ccccc1Cl)c1cnccn1` was 20 µM (inconclusive).

By IC50 is commonly meant the concentration at which inhibition is half-maximal. One may read the AC50 as the midpoint of the concentration-response curve, whichever way the signal moves.
